Test results: patent US10517870B2, “Aryl substituted bicycle heteroaryl compounds” (Bristol-Myers Squibb Company, priority 2015, dated 2019)
Read-outs that look alike come from different tables or passages of the source.

Tests used:
Type in all cases: cell-based
[1] = test system: Caski (HPV16+) cells; experiment: Cell proliferation/viability assay, Caski cells; conditions: Homo sapiens, Ca-Ski, 96 h, 4 days
Procedure: (§1) Caski (catalog number CRL-1550), SiHa (catalog number HTB-35), C33A (catalog number HTB-31), Saos-2 (ATCC HTB-85), and Hela (catalog number CCL-2) cells were obtained from the American Type Culture Collection (ATCC). The human cervical carcinoma cell lines Caski. SiHa, Hela and C33A, and the human osteosarcoma cell line Saos-2, and the human keratinocyte cell line HaCaT were cultured in Dulbecco's Modified Eagle Medium (DMEM, Invitrogen catalog number 11965-092) supplemented with 10% fetal bovine serum. The colorectal carcinoma cell line HCT-116 was cultured in Roswell Park Memorial Institute-1640 Medium (Invitrogen catalog number 11875-093) supplemented with 10% FBS. All cells were incubated at 37° C. in a humidified atmosphere with 5% CO2 in air. To establish the SCHPV-18 cell line, one million primary neonatal human foreskin keratinocytes (Invitrogen, catalog no. C-001-5C), cultured in KBM Gold-keratinocvte cell basal medium (Lonza, catalog no. 192060), were electroporated with 5 μg HPV-18 plasmid DNA (ATCC catalog no. 45152D) using the Amaxa Nucleofector II on setting T-007. Cells were co-transfected with 2 μg plasmid pZSGreen1-N1 (Clontech catalog no. 632448) encoding G418 resistance, and cells were selected for four days in 100 μg/ml G418, after which selection was removed. Cells were maintained in culture six months prior to compound testing. Integration of the HPV 18 genome was confirmed by Southern blot. Control cells transfected in parallel with pZSGreen1-N1 alone became senescent four days after selection and the culture could not be expanded. SCHPV-18 cells were maintained in E medium (Fehrmann F, Laimins L A. Human papillomavirus type 31 life cycle: methods for study using tissue culture models. Methods Mol Biol 2005; 292:317-330).
(§2) For proliferation assays, cells were plated in white polystyrene 96-well plates (Costar catalog number 3917) for CellTiter Glo viability assays or 96-well special optics plates (Costar cat #3614) for CellTiter Blue viability assays. Cells were plated in the appropriate growth medium without antibiotics. Two hours after cell plating, a 200× compound stock diluted in DMSO was added to a final concentration of 0.5%. Plates were incubated at 37° C., for 4 days and then cell viability was assessed using either CellTiter Blue (Promega catalog number G8081) or CellTiter Glo (Promega catalog number G7572) according to the manufacturer's instructions. For the CellTiter Blue viability assay, data was collected using the SpectraMax Gemini EM (Molecular Devices) with an excitation wavelength of 530 nm and emission wavelength of 590 nm. For the CellTiter Glo viability assay, data was collected using the Envision Mulitlabel Reader (Perkin Elmer catalog number 2104-0010). To calculate IC50 and EC50 values, percent inhibition curves were fit using a four-parameter logistic formula [y=A+[…]], where A and B denote minimal and maximal % inhibition, respectively, C is the IC50 value, D is the Hill slope, and x represents compound concentration.
(§3) Table C, below, sets out the results obtained employing various compounds of the invention tested for their effects on proliferation of such cells. Caski or SiHa cells, transformed by HPV 16, Hela cells, transformed by HPV 18, or HPV-negative control cell lines (Saos-2 or C33a) were treated with various compounds. […] Unlike the HPV-negative Saos-2 or C33a cell lines, the HPV-transformed cell lines rely on the presence of HPV for their continued proliferation. Therefore, a comparison of IC50 values from HPV-transformed cell lines with IC50 values obtained from HPV-negative cell lines can be used to test for compound selectivity.

[2] = test system: HeLa (HPV18+) cells; experiment: Cell proliferation/viability assay, HeLa cells; conditions: Homo sapiens, 96 h, 4 days
Procedure: as §1, §2, §3

[3] = test system: SiHa (HPV16+) cells; experiment: Cell proliferation/viability assay, SiHa cells; conditions: Homo sapiens, 96 h, 4 days
Procedure: as §1, §2, §3

[4] = test system: Saos-2 (HPV−) cells; experiment: Cell proliferation/viability assay, Saos-2 cells; conditions: Homo sapiens
Procedure: as §1, §2, §3

[5] = test system: C33A (HPV−) cells; experiment: Cell proliferation/viability assay, C33A cells; conditions: Homo sapiens, C-33-A, 96 h
Procedure: as §1, §2, §3

[6] = target: T1, PAR4 (Homo sapiens, UniProt Q96RI0); experiment: PAR4 FLIPR assay (calcium mobilization, antagonist activity) in PAR4-expressing HEK293 cells
T1 construct: expressed in transfected cells; host or cells: HEK293 PAR4 Clone 1.2A
T1 sequence (Q96RI0 18-385): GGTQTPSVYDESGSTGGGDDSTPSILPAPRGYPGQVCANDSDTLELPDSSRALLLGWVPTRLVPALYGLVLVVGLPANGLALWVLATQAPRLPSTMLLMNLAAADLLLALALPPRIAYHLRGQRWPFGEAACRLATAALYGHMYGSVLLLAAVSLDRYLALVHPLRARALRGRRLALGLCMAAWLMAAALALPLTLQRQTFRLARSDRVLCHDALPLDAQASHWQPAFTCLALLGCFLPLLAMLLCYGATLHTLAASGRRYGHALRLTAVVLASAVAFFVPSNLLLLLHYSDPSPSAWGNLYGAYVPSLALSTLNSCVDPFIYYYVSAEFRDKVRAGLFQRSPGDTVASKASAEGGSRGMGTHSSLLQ
Text: The FLIPR assay is an exemplary in vitro assay for measuring the activity of the PAR4 antagonists of the present invention. In this assay, intracellular calcium mobilization is induced in PAR4 expressing cells by a PAR4 agonist and calcium mobilization is monitored.
HEK293 cells stably expressing PAR4 were generated by a standard method of transfection of human PAR4 (F2R23) cDNA expression vector and selected based on PAR4 protein expression or mRNA expression. […] These cells also express endogenous PAR1 and can elicit calcium signal upon stimulation with PAR1 agonist peptide. Therefore, the same cells were also used to determine selectivity against PAR1 and agonist activity for both receptors. Cells from HEK293 PAR4 Clone 1.2A (BMS Arctic ID 383940) were propagated and used for calcium mobilization studies.
FLIPR-based calcium mobilization assay in HEK293 cells was used to measure PAR4 antagonism, agonism, and selectivity against PAR1. The activity of the PAR4 antagonists of the present invention were tested in PAR4 expressing cells by monitoring H-Ala-Phe(4-F)-[…]NH2-induced intracellular calcium mobilization. Counter screens for agonist activity and PAR1 antagonist activity were also performed. Briefly, PAR1/PAR4-expressing HEK293 cells were grown in DMEM (Life Technology, Grand Island, N.Y.) containing 10% heat-inactivated FBS, 1% Penicillin-Streptomycin, 10 μg/mL blasticidin, and 100 μg/mL Zeocin at 37° C. with 5% CO2. Cells were plated overnight prior to the experiment in a black 384-well Purecoat Amine clear bottom plate (Becton Dickinson Biosciences, San Jose, Calif.) at 10,000 cells/well in 30 μL growth medium and incubated in a humidified chamber at 37° C. with 5% CO2 overnight. Prior to compound addition, the cell medium was replaced with 40 μL of IX calcium and magnesium-containing Hank's Balanced Saline Solution (HBSS) (with 20 mM HEPES) and 1:1000 diluted fluorescent calcium indicator (Codex Biosolutions, Gaithersburg, Md.). After a 30 minute incubation period at 37° C., and a further 30 minute incubation and equilibration period at room temperature, 20 μL test compound (diluted in 1×HBSS buffer) was added at various concentrations at 0.17% dimethyl sulfoxide (DMSO) final concentration. Changes in fluorescence intensity were measured using a Functional Drug Screening System (FDSS, Hamamatsu, Japan) to determine agonist activities. The cells were then incubated for 30 minutes at room temperature followed by addition of 20 μL of agonist peptide for antagonist activity measurement. […] Compound potency was derived from 11-point concentration-response curves.

[7] = 96 h, Saos-2, HPV-negative, 4 days, read-out: Saos-2 (HPV−) Proliferation IC50
[8] = C33A, HPV-negative, 4 days, read-out: C33A (HPV−) Proliferation IC50
[9] = SAOS-2, 96 h, read-out: Saos-2 (HPV−) Proliferation IC50 (μM)
[10] = read-out: C33A (HPV−) Proliferation IC50 (μM)

Structure (SMILES) | IC50 [1] [µM] | IC50 [2] [µM] | IC50 [3] [µM] | IC50 [4, 7] [µM] | IC50 [5, 8] [µM] | IC50 [6] [µM] | IC50 [4, 9] [µM] | IC50 [5, 10] [µM]
COc1ccc(-c2cc(C(F)(F)F)cc3nc(OC(F)F)cnc23)cc1C(F)(F)F [Example 9, 2-(difluoromethoxy)-5-(4-methoxy-3-(trifluoromethyl)phenyl)-7-(trifluoromethyl)quinoxaline] | 3.3 | 1.5 | 1.7 | 76.2 | 78.7 | – | – | –
Cc1cc(-c2ccc(Cl)cc2Cl)c2ncc(OC(F)F)nc2c1 [Example 23, 5-(2,4-dichlorophenyl)-2-(difluoromethoxy)-7-methylquinoxaline] | 12.9 | 10.9 | 9.3 | – | – | 0.012 | > 100 | 79.7
Cc1cc(-c2ccc(C(F)(F)F)cc2)c2ncc(OC(F)F)nc2c1 [Example 19] | 14.6 | 29.9 | 20.5 | – | – | 0.8 | > 100 | > 100
COc1ccc(-c2cc3ncc(OC(F)F)nc3cc2C(F)(F)F)cc1 [Example 7, 2-(difluoromethoxy)-6-(4-methoxyphenyl)-7-(trifluoromethyl)quinoxaline] | 5 | 4.4 | 4.3 | 92.1 | > 100 | – | – | –
COc1ccc(-c2cc(Cl)cc3nc(OC(F)F)cnc23)cc1 [Example 2, 7-Chloro-2-(difluoromethoxy)-5-(4-methoxyphenyl)quinoxaline] | 10 | 9.3 | 8 | – | – | 2.1 | > 100 | 54
Cc1cc(-c2ccc(F)c(C(F)(F)F)c2)c2ncc(OC(F)F)nc2c1 [Example 17, 2-(difluoromethoxy)-5-(4-fluor-3-(trifluoromethyl)phenyl)-7-methylquinoxaline] | 17.9 | 23.7 | 17.8 | 96.5 | 58.3 | – | – | –
COc1ccc2cc(-c3cc(C(F)(F)F)cc4nc(OC(F)F)cnc34)ccc2c1 [Example 11, 2-(difluoromethoxy)-5-(6-methoxynaphthalen-2-yl)-7-(trifluoromethyl)quinoxaline] | 2.9 | 2.1 | 2.7 | 45.9 | > 99.5 | – | – | –
COc1ccc(-c2cc(C(F)(F)F)cc3nc(OC(F)F)cnc23)cc1F [Example 12] | 3.2 | 1.1 | 1.3 | 14.3 | > 99.5 | – | – | –
COc1cc(-c2cc(C(F)(F)F)cc3nc(OC(F)F)cnc23)cc(C(F)(F)F)c1 [Example 13, 2-(difluoromethoxy)-5-(3-methoxy-5-(trifluoromethyl)phenyl)-7-(trifluoromethyl)quinoxaline] | 15.6 | 37 | 24 | 40.3 | 40.5 | – | – | –
COc1ccc(-c2cc(Br)cc3nc(OC(F)F)cnc23)cc1 [Example 27, 7-bromo-2-(difluoromethoxy)-5-(4-methoxyphenyl)quinoxaline] | – | – | – | – | – | 2.6 | – | –
COc1ccc(-c2cc(C)cc3nc(OC(F)F)cnc23)cc1C(F)(F)F [Example 16, 2-(difluoromethoxy)-5-(4-methoxy-3-(trifluoromethyl)phenyl)-7-methylquinoxaline] | 7 | 9.1 | 9.4 | > 99.5 | > 99.5 | – | – | –
COc1ccc(-c2cc(C(F)(F)F)cc3ncc(OC(F)F)nc23)cc1 [Example 14, 2-(difluoromethoxy)-8-(4-methoxyphenyl)-6-(trifluoromethyl)quinoxaline] | 2.8 | 2.6 | 2.9 | 57.7 | 49.9 | – | – | –
C=Cc1cc(-c2ccc(OC)cc2)c2ncc(OC(F)F)nc2c1 [Example 3, 2-(difluoromethoxy)-5-(4-methoxyphenyl)-7-vinylquinoxaline] | 61.9 | – | – | – | – | 0.69 | > 100 | > 100
COC(=O)c1cc(-c2ccc(OC)cc2)c2ncc(OC(F)F)nc2c1 [Example 4, Methyl 3-(difluoromethoxy)-8-(4-methoxyphenyl)quinoxaline-6-carboxylate] | 12.6 | – | – | – | – | 1 | > 100 | 53.4
Cc1cc(-c2cccc(C(F)(F)F)c2)c2ncc(OC(F)F)nc2c1 [Example 25, 2-(difluoromethoxy)-7-methyl-5-(3-(trifluoromethyl)phenyl)quinoxaline] | 14.5 | 15.2 | 11.7 | > 100 | > 100 | – | – | –
COc1cccc(-c2cc(C(F)(F)F)cc3nc(OC(F)F)cnc23)c1 [Example 10, 2-(difluoromethoxy)-5-(3-methoxyphenyl)-7-(trifluoromethyl)quinoxaline] | 3.9 | 4.4 | 5.1 | 55 | > 99.5 | – | – | –
